Measurements as given in ChEMBL document CHEMBL1201862, “PubChem BioAssay data set” (2004).
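Cells were grown in 96-well plates and exposed to each compound for 48 hours at five concentrations; endpoints were interpolated linearly between bracketing concentrations, or set to the highest concentration if not reached. GI50: concentration for 50% inhibition of growth.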 Activity calls are given as the source filed them. Cut-off read from the data, not from the text of the source: active = GI50 up to about 1.1 µM and inactive = higher.

Experiments:
Test in all cases: growth of human tumour cells (NCI), 48 h
786-0 = system: 786-0
A549 = system: A549
CCRF-CEM = system: CCRF-CEM
DU-145 = system: DU-145
HCT-15 = system: HCT-15
HL-60 = system: HL-60
K562 = system: K562
LOX IMVI = system: LOX IMVI
M14 = system: M14
MDA-MB-435 = system: MDA-MB-435
NCI-H460 = system: NCI-H460
OVCAR-8 = system: OVCAR-8
RXF 393 = system: RXF 393
SF-268 = system: SF-268
SF-295 = system: SF-295
SK-MEL-5 = system: SK-MEL-5
SK-OV-3 = system: SK-OV-3
TK-10 = system: TK-10
UACC-257 = system: UACC-257
UACC-62 = system: UACC-62

Structure (SMILES) | GI50 (786-0) | GI50 (A549) | GI50 (CCRF-CEM) | GI50 (DU-145) | GI50 (HCT-15) | GI50 (HL-60) | GI50 (K562) | GI50 (LOX IMVI) | GI50 (M14) | GI50 (MDA-MB-435) | GI50 (NCI-H460) | GI50 (OVCAR-8) | GI50 (RXF 393) | GI50 (SF-268) | GI50 (SF-295) | GI50 (SK-MEL-5) | GI50 (SK-OV-3) | GI50 (TK-10) | GI50 (UACC-257) | GI50 (UACC-62)
O=C1c2ccccc2C(=O)N1c1nc(-c2ccc(Cl)cc2)cc(N2N=C(c3ccc(Br)cc3)CC2c2ccccc2)n1 (stereo not given) | 4.93 µM (inactive) | 3.24 µM (inactive) | 4.13 µM (inactive) | 3.45 µM (inactive) | 1.99 µM | 2.9 µM (inactive) | 3.08 µM (inactive) | 1.29 µM (inactive) | 3.73 µM (inactive) | 0.745 µM (active) | 4.36 µM (inactive) | 3.35 µM (inactive) | 9.16 µM (inactive) | 2.7 µM (inactive) | 0.91 µM (active) | 1.96 µM (inactive) | 6.34 µM (inactive) | 7.98 µM (inactive) | 6.7 µM (inactive) | 2.72 µM (inactive)
COc1ccc(N2C(=O)CC(=O)N(NC(=O)C(C)Oc3ccccc3C)C2=S)cc1 (stereo not given) | > 100 µM (inactive) | > 100 µM (inactive) | > 100 µM (inactive) | > 100 µM (inactive) | > 100 µM | > 100 µM (inactive) | > 100 µM (inactive) | > 100 µM (inactive) | > 100 µM (inactive) | > 100 µM (inactive) | > 100 µM (inactive) | > 100 µM (inactive) | > 100 µM (inactive) | > 100 µM (inactive) | > 100 µM (inactive) | > 100 µM (inactive) | > 100 µM (inactive) | > 100 µM (inactive) | > 100 µM (inactive) | > 100 µM (inactive)
FC(F)(F)C1(c2ccccc2)SCc2nc3ccccc3n21 (stereo not given) | > 100 µM (inactive) | > 100 µM (inactive) | 88.1 µM (inactive) | > 100 µM (inactive) | 78.7 µM | 24.2 µM (inactive) | 43.7 µM (inactive) | 97.5 µM (inactive) | > 100 µM (inactive) | 40.6 µM (inactive) | 80.9 µM (inactive) | > 100 µM (inactive) | > 100 µM (inactive) | > 100 µM (inactive) | > 100 µM (inactive) | 66.1 µM (inactive) | > 100 µM (inactive) | > 100 µM (inactive) | > 100 µM (inactive) | > 100 µM (inactive)
FC1(F)ON2CCc3ccccc3C2[C@H]1c1ccccc1 (stereo not given in full) | 26.4 µM (inactive) | > 10 µM (inactive) | > 100 µM (inactive) | > 10 µM (inactive) | > 10 µM | > 10 µM (inactive) | > 10 µM (inactive) | 91 µM (inactive) | 82 µM (inactive) | > 10 µM (inactive) | > 10 µM (inactive) | 39.9 µM (inactive) | 76.4 µM (inactive) | > 10 µM (inactive) | > 10 µM (inactive) | > 10 µM (inactive) | > 10 µM (inactive) | > 10 µM (inactive) | > 10 µM (inactive) | > 10 µM (inactive)
CCN(CC)CCn1c(=O)c2ccccc2n2c3c(=O)n(C)c(=O)n(C)c3nc12 | 1.32 µM (inactive) | 0.321 µM (active) | 0.547 µM (active) | 0.771 µM (active) | 15.4 µM | 0.255 µM (active) | 2.21 µM (inactive) | 13.2 µM (inactive) | 3.16 µM (inactive) | 4.71 µM (inactive) | 0.148 µM (active) | 1.84 µM (inactive) | 5.27 µM (inactive) | 2.07 µM (inactive) | 1.24 µM (inactive) | 1.17 µM (inactive) | 1.37 µM (inactive) | 19.6 µM (inactive) | 3.46 µM (inactive) | 0.762 µM (active)
Cc1cc(N2CCN(C)CC2)n2nc(-c3ccc(Cl)cc3)nc2n1 | 50.7 µM (inactive) | > 100 µM (inactive) | 11.5 µM (inactive) | > 100 µM (inactive) | > 100 µM | 27.3 µM (inactive) | 60.4 µM (inactive) | 61.1 µM (inactive) | > 100 µM (inactive) | > 100 µM (inactive) | 50.7 µM (inactive) | > 100 µM (inactive) | 31.5 µM (inactive) | > 100 µM (inactive) | 91.2 µM (inactive) | 50.2 µM (inactive) | > 100 µM (inactive) | 68.1 µM (inactive) | 77.6 µM (inactive) | 75.3 µM (inactive)
O=c1cc(NNc2cccc3ccccc23)[nH]c(=O)[nH]1 | 6.12 µM (inactive) | 17.9 µM (inactive) | 10.1 µM (inactive) | 15.3 µM (inactive) | 12.4 µM | 2.9 µM (inactive) | 12.9 µM (inactive) | 13.6 µM (inactive) | 15.9 µM (inactive) | 17.1 µM (inactive) | 18.8 µM (inactive) | 18 µM (inactive) | 17.9 µM (inactive) | 16.4 µM (inactive) | 17.5 µM (inactive) | 15.8 µM (inactive) | 26.7 µM (inactive) | 19.7 µM (inactive) | 15.7 µM (inactive) | 17.5 µM (inactive)
